Columns and labels:
SiHa cells [1] = assay: Western blot, SiHa; format: cell-based; conditions: 80 µM
Method: Western blotting was carried out as described previously, [50]. […] After another 48 h of treatment, the cells were lysed in lysis buffer (Beyotime Institute of Biotechnology, Jiangshu, China) containing PMSF (Sigma Chemical Co., St. Louis, MI, USA) for 30 min at 4°C. The lysate was then centrifuged for 20 min at 13,000 rpm and 4°C. The proteins were then separated through SDS-PAGE and transferred onto the PVDF membrane (Immobion®-P Transfer Membrane, Millipore Corp., Billerica, MA, USA). Membranes were blocked in a Tris-buffered saline with 0.1% Tween-20 (TBS-T) solution with 5% nonfat dry milk and incubated overnight with primary antibodies at 4°C. The immunoreactive signals were detected by HRP-conjugated secondary antibodies (KPL, Gaithersburg, MD, USA) followed by SuperSignal® West Pico Chemiluminescent Substrate (Thermo Scientific, Milford, MA, USA.). Anti-β-actin antibodies were used to control protein loading. For the in vivo studies, tumors were harvested, and the cell lysates were prepared and transferred to a clean Eppendorf tube and centrifuged for 30 min at 14,000 rpm. The supernate was probed by western blotting, as described above.

HPV16E7/pRb interaction = assay: His-pull down of pRb by His-HPV16E7; format: binding; conditions: 293T cell lysate (300 µg total proteins), 10 µl 8 mmol/L Pep-7, overnight 4°C
Method: For pull-down analysis, the purified His-HPV E7 protein (200 µg/ml×50 µl) was preincubated with 100 µl His-band Resin (Amersham Biosciences, Little Chalfont, UK) for 4 h at 4°C. The beads were then washed four times with lysis buffer and divided into two equal portions. […] The mixtures were incubated overnight at 4°C under continuous agitation. Beads were subsequently washed four times with a lysis buffer. Bound proteins were eluted by boiling in Laemmli sample buffer and analyzed by Western blot.

[2] = test system: cyclin A, E1 and D1 promoters containing E2F binding sites; assay: Luciferase reporter assay, SiHa; format: cell-based; conditions: 80 µM, 24 h
Method: SiHa cells were co-transfected with E2F-responsive luciferase reporter plasmids and siRNA of Rb, p130 and p107, respectively.
The cells were seeded in 12-well plate at a density of 3×10^5 cells/well. The following day, cells were transfected with SiRNA and luciferase reporter plasmids or siRNA alone, respectively, using LipofectAMINE 2000 as described in the manufacturer's protocol (Invitrogen, Carlsbad, CA, USA).
(§1) The reporter assays were performed using Bright-Glo™ Luciferase Assay System (Promega, Madison, WI, USA) according to the manufacturer's instructions. Briefly, cells were plated in 12-well plates at a density of 1.5×10^5 cells/well. The following day, cells were transfected with reporter constructs. […] Thereafter, cell lysates were collected for reporter assays. The luciferase reporter activity of each sample was normalized against the corresponding protein content prior to calculation of the fold induction value relative to the controls. Each sample was determined in triplicate. The results represent means ± SE from three experiment runs.

[3] = test system: cyclin A, E1 and D1 promoters containing E2F binding sites; assay: Luciferase reporter assay, CaSki; format: cell-based; conditions: 80 µM, 24 h, means ± SE, three experiments
Method: as §1

pRb = pRb half-life measurement (cycloheximide, Western blot); format: cell-based; conditions: SiHa, 80 µM Pep-7 24 h, then 50 µg/ml cycloheximide 0 to 12 h; three experiments
Method: Measurements of pRb half-life were carried out.
The cells were then treated with 50 µg/ml cycloheximide for 0 to 12 h. The cell lysates collected at different time points were subjected to Western blotting assay as above. Band intensity was used to determine the proteins half-life.

SiHa cells [4] = assay: qRT-PCR, SiHa; format: cell-based; conditions: 80 µM
Method: Total RNA was extracted from the cultured cells using TRIzol reagent (Invitrogen, Carlsbad, CA,USA) according to the manufacturer's instructions. qRT-PCR was used to confirm the expression levels of mRNAs. Reverse transcription and qPCR were performed according to the protocol of Reverse Transcriptase System™ and SYBR® premix Ex Taq™ (Perfect Real Time) (TaKaRa, Dalian, P.R. China) on the ABI 7300 Real Time PCR System (Applied Biosystems, Foster City, CA, USA) supplied with analytical software. β-actin mRNA levels were used for normalization. Each sample was determined in triplicate. The results represent means ± SE from three experiment runs.

SiHa cells [5] = assay: Clonogenic assay, SiHa; format: cell-based; conditions: 14 days
Method: (§2) Cells were seeded in DMEM at 1×10^3 cells/well density in 12-well plates and allowed to attach to the substrate overnight. Thereafter, cells were treated with 0 µM, 16 µM, 32 µM, 80 µM, and 160 µM peptide in DMEM, and the medium was changed every three days. The plates were observed daily for colony formation. After 8 (for HeLa cells) or 14 (for SiHa and CaSki cells) days of treatment, the cultures were washed three times with PBS and stained with crystal violet in ethanol for 15 min. The colonies were then counted and photographed with the Alphalmager® EP image acquisition system (Alpha Innotech, Santa Clara, CA, USA).

COS7 = assay: MTT cell viability assay, Cos7; format: cell-based, African green monkey; conditions: Cos7, HPV-negative; data not shown
Description: HPV16-positive SiHa and CaSki cervical carcinoma cells were supplied by China Center for Type Culture Collection (CCTCC). The following cell lines used in this project were from our laboratory: HPV18-positive HeLa cervical carcinoma cells, CNE nasopharyngeal carcinoma cells, HaCat human keratinocyte cells, COS7 (African green monkey SV40-transformed kidney fibroblast cell line), 293T (human kidney epithelial cells), and NIH/3T3 mouse embryonic fibroblast cells. All cells were maintained in a humidified atmosphere of 5% CO2, Dulbecco's modified Eagle's medium (DMEM, pH 7.2), supplemented with 10% fetal calf serum (FCS).
Cell viability was determined with an MTT assay. Briefly, the cells were seeded into 96-well plates at a density of 4–5×10^3 cells/well. The cells were allowed to recover for 24 h before the medium was replaced with DMEM supplemented with peptides at different concentrations. The solvent of the peptides was set as the control. The peptide-supplemented medium was replaced daily and the respective concentrations were maintained. The cells were subjected to an MTT cell proliferation assay at different time points. The plates were incubated at 37°C for 3 h with the addition of 20 µl/well MTT (5 mg/ml). Untransformed MTT in the solution was removed by aspiration. […] The optical density of the formazan solutions was measured by microplate reader at 540 nm.

CaSki cells = assay: Clonogenic assay, CaSki; format: cell-based; conditions: 14 days
Method: as §2

[6] = vs 0 µM group, three independent experiments

## SACPKGLDWCGG (C&C bridged by disulfide bonds) (disulfide) [Pep-7]
SiHa cells [1]; SiHa and CaSki (Fig. 4D)
  p107 and p130 protein levels: did not exhibit an effect
SiHa cells [1]; SiHa, 48 h
  HPV16E7 protein level: reduced
  cyclins A, D1 and E1 protein expression: significantly reduced
  pRb protein level: increased
HPV16E7/pRb interaction
  pull-down of pRb by His-HPV16E7: could not pull down pRb from 293T cell lysates with Pep-7 present
[2]; means ± SE, three experiments
  activities of cyclin A, E1 and D1 promoters: remarkable down-regulation
[2]; p130 or p107 siRNA
  influence of p130 or p107 knock-down on Pep-7 suppression of promoters: did not affect the influence of Pep-7 on these promoters
[2]; pRb siRNA
  influence of pRb knock-down on Pep-7 suppression of promoters: abrogated the suppression of cyclin A, E1 and D1 promoter activities by Pep-7
[3]
  activities of cyclin A, E1 and D1 promoters: remarkable down-regulation
pRb
  pRb half-life: significantly expanded
SiHa cells [4]
  cyclins A, D1 and E1 RNA expression: significantly reduced
  pRb and HPV16E7 RNA levels: not affected
SiHa cells [5]; 16-160 µM
  colony formation: inhibited
SiHa cells [5]; [6]
  concentration up to which colony number difference vs control became significant (p<0.02): 32 µM
COS7
  cell proliferation (MTT): negligible effect
CaSki cells; 16-160 µM
  colony formation: inhibited
CaSki cells; [6]
  concentration up to which colony number difference vs control became significant (p<0.02): 32 µM

Reference: PMC3057995, “Potent Anti-Tumor Effect Generated by a Novel Human Papillomavirus (HPV) Antagonist Peptide Reactivating the pRb/E2F Pathway” (PLoS ONE, 2011)
